From EP1932513A2, “Compounds for improving the visual appearance of the skin” (Henkel AG & Co. KGaA, priority 2006, dated 2008)

Assays:
Proteasom = test: Proteasome activity (suc-LLVY-MCA hydrolysis) in lysate of treated fibroblasts; assay type: cell-based, menschlich
Protocol: (§1) Dermale Fibroblasten (isoliert aus menschlicher Vorhaut) wurden bei 37°C und 5 Vol.-% CO2 mit Dulbecco's Minimal Essential Medium High Glucose unter Zusatz von 1 Gew.-% Glutamax, 1 Gew.-% Penicillin/Streptomycin und 10 Gew.-% fetalem Kälberserum kultiviert. Zur UV-A Bestrahlung mittels eines Teilkörperbestrahlungshimmels Typ Sellamed 2000 (Dr. Sellmeier; Bestrahlungsspektrum: 340-400 nm, Maximum: 360-380 nm) wurden die Zellen in Petrischalen ausplattiert (ca. 3,8 x 10^4 Zellen/cm^2; zuzüglich 2 Tage Wachstum, danach noch subkonfluent), das Zellmedium abgesaugt, die Zellen einmal mit PBS gewaschen und die UV-A Bestrahlung anschließend in PBS durchgeführt (Dosierung über Zeitintervall bis zu 14min bei […]). Nach UV-A Bestrahlung und Entfernung des PBS wurden die Zellen wieder mit Zellmedium versetzt und bis zur Zellernte bei 37°C, 5 Vol.-% CO2 aufbewahrt. Nach Zelltrypsinierung und -schabung erfolgte unter Zusatz von hypotonem Salzpuffer (10 mM HEPES, 24 mM KCl, 10 mM MgCl2, pH 7,5) und Anwendung der Frier-Tau-Technik die Herstellung des Zelllysats. Nicht lysierte Zellen sowie Membranen und Zellkerne wurden durch zehnminütige Zentrifugation bei 14000 rpm und 4°C abgetrennt.
(§2) Getestete Substanzen: • Natriumascorbylphosphat (0,025 mg/ml), BASF, entsprechend einem Aktivsubstanzgehalt in der Testlösung von 0,0025 Gew.-% • Hypotaurin 0,25 (mg/ml), Siber Hegner (entsprechend einem Aktivsubstanzgehalt in der Testlösung von 0,025 Gew.-%) • Kombuchka (7,5 mg/ml), Sederma (entsprechend einem Aktivsubstanzgehalt in der Testlösung von 0,02 - 0,053 Gew.-%) • Glistin (0,5 mg/ml), Exsymol (entsprechend 4,5 - 5,5' 10^-4 Gew.-% Glutamylamidoethylindol in der Testlösung) • Gingkoselect Phytosome (0,15 mg/ml), Indena (entsprechend 0,9 - 1,8 · 10^-5 Gew.-% […]-Aktivsubstanz in der Testlösung), wird vom Hersteller als Antioxidans ausgelobt.
Die Behandlung der Fibroblasten mit Antioxidantien erfolgte wie unter 2.3.3. Das Zelllysat wurde mit einem Puffer, der Tris-HCl (pH=7,8 bei 37°C), KCI, Mg-Acetat, MgCl2 und Dithiothreitol enthält, versetzt. Nach Zugabe von 10µl einer 2mM Stammlösung von suc-LLVY-MCA (N-Succinyl-Leucin-Leucin-Valin-Tyrosin-4-Methyl-cumaryl-7-amid) erfolgte eine 30-minütige Inkubation bei 37°C. Anschließend wurde die Fluoreszenz des Hydrolyseprodukts MCA (4-Methyl-cumaryl-7-amid) am Fluorimeter bestimmt (Anregungswellenlänge: 390 nm, Detektionswellenlänge: 460nm) und die MCA-Konzentration unter Verwendung einer Standardreihe bestimmt.

Dermale Fibroblasten = test: Protein carbonyls in vitro (ELISA) in UV-A irradiated and non-irradiated fibroblasts; assay type: cell-based, menschlich; details: for durch UV-A-Bestrahlung induzierter Anstieg des Proteincarbonyl-Gehalts: summary in words of the fibroblast results
Protocol: as §1, §2
Fibroblasten wurden für 16 Stunden mit Antioxidantien-haltigem Medium versetzt. Nach UV-A Bestrahlung in PBS wurden die Fibroblasten anschließend wieder für 3 Stunden mit Antioxidantien-haltigem Medium versetzt und lysiert. Die Detektion der Proteincarbonyle erfolgte per ELISA Technik nach Buss et al. mit Veränderungen nach Sitte et al.. Das Zelllysat wurde mit Dinitrophenylhydrazin versetzt, und die gebildeten Hydrazone wurden mit Hilfe des primären Antikörpers Anti-Dinitrophenyl-Rabbit-IgG detektiert. Als sekundärer Antikörper wurde der Anti-Rabbit-IgG-Antikörper (Peroxidase-konjugiert) verwendet und die Menge des gebundenen, sekundären Antikörpers nach Entwicklung mit o-Phenylendiamin und Wasserstoffperoxid detektiert.

[1] = bestrahlt (UV-A), unbehandelt bestrahlt = 23,41, unbehandelt und unbestrahlt = 100 %
[2] = unbestrahlt, unbehandelt = 100 %
[3] = bestrahlt (UV-A), unbehandelt bestrahlt = 171,43, test concentrations: Natriumascorbylphosphat 0,025 mg/ml, Hypotaurin 0,25 mg/ml, Kombuchka 7,5 mg/ml, Glistin 0,5 mg/ml, Gingkoselect Phytosome 0,15 mg/ml

SMILES	Proteasomaktivität MW (%) (Proteasom; [1])	Proteasomaktivität MW (%) (Proteasom; [2])	Proteincarbonyl-Gehalt [%, relativ zum unbehandelten und unbestrahlten Zustand] (Dermale Fibroblasten; [3])	durch UV-A-Bestrahlung induzierter Anstieg des Proteincarbonyl-Gehalts (Dermale Fibroblasten)	Proteincarbonyl-Gehalt [%, relativ zum unbehandelten und unbestrahlten Zustand] (Dermale Fibroblasten; unbestrahlt, unbehandelt = 100)
NC(CCC(=O)O)C(=O)NCCc1c[nH]c2ccccc12 (stereo not drawn) [Glistin, Glutamylamidoethylindol]	24,94%	119,32%	139,96%	reduzieren	112,69%
NCCS(=O)O [Hypotaurin]	32,9%	144,37%	151,3%	reduzieren	128,32%
O=C1O[C@H]([C@@H](O)CO)C(O)=C1OP(=O)(O)O [Natriumascorbylphosphat]	33,36%	104,74%	124,18%	reduzieren	86,82%
